{"source": "patent US9173864B2", "about": "“Treatment and/or prevention of inner ear conditions by modulation of a metabotropic glutamate receptor” (House Ear Institute, priority 2008, dated 2015)", "test_system": "patients with symptoms of presbycusis", "test": "Administration of FTIDC to patients with presbycusis (Example 5)", "assay_type": "in vivo, human", "details": "person; for hearing threshold, left ear / hearing threshold, right ear: after 14 days", "method": "A person presents with symptoms of presbycusis, including moderate loss of higher frequency (above 2000 Hz) hearing (50 decibel threshold) in both ears. The person is administered two drops per ear twice daily of a topical otic formulation comprising 10 ug/ml of FTIDC in a phosphate-buffered saline and further comprising 0.25% the carboxyvinyl water swellable gelling agent, Carbopol 934P; i.e., about […] of FTIDC per ear per dosing. After 14 days, the patient is tested by an audiologist. The threshold is lowered to 35 decibels right ear and 40 decibels left ear.\nA person presents with symptoms of presbycusis, including loss of moderately high frequency (above 1000 Hz) hearing (40 decibel threshold right ear and 35 decibel threshold left ear). The person is administered an oral formulation 4 times per day comprising 2 ug per dose of FTIDC. The extended release capsule comprises a matrix of 10% by weight hydroxypropyl methylcellulose (e.g., Methocel®; Dow Chemical Company, U.S.A), and 50% by weight of a cornstarch filler. After 14 days, the threshold is lowered to 35 decibels right ear and 25 decibels left ear.\nA person presents with symptoms of presbycusis, including loss of hearing in the 500 to above 2000 Hz range. The person is implanted with an Alset® osmotic pump adapted for cochlear delivery; see e.g., Richardson, R. T., Noushi, F., O'Leary, S. Inner ear therapy for neural preservation. AUDIOLOGY AND NEURO-OTOLOGY 2006; 11(6): 343-356. The pump is supplied with an aqueous sterile solution comprising FTIDC. The pump delivers a dose of 10 ug/hour of the modulator.", "key": {"[1]": {"details": "higher frequency (above 2000 Hz) loss, 50 decibel threshold before, topical otic drops 10 ug/ml twice daily"}}, "data": [{"smiles": "Cc1c(C2=CCN(C(=O)N(C)C(C)C)CC2)nnn1-c1cccnc1F", "note": "[FTIDC, 4-[1-(2-fluoropyridin-3-yl)-5-methyl-1H-1,2,3-triazol-4-yl]-N-isopropyl-N-methyl-3,6-dihydropyridine-1(2H)-carboxamide]", "values": [{"measurement": "hearing threshold, left ear", "setting": "above 1000 Hz loss, 35 decibel threshold before, oral extended release capsule 2 ug per dose 4 times per day", "value": 25, "unit": "decibels"}, {"measurement": "hearing threshold, right ear", "setting": "above 1000 Hz loss, 40 decibel threshold before, oral extended release capsule 2 ug per dose 4 times per day", "value": 35, "unit": "decibels"}, {"measurement": "hearing threshold, left ear", "setting": "[1]", "value": 40, "unit": "decibels"}, {"measurement": "hearing threshold, right ear", "setting": "[1]", "value": 35, "unit": "decibels"}, {"measurement": "hearing", "setting": "loss in 500 to above 2000 Hz range, osmotic pump cochlear delivery 10 ug/hour, after 10 days", "value": "hearing is improved in both ears"}]}]}
